Experimental data taken from PubChem BioAssay AID2060909 (Molecular Pharmacology Branch, DTP, NCI, 2025).

Test system: 362531-283-R-J2-PDC complex spheroid viability
Experiment: Anticancer human tumor 362531-283-R-J2-PDC patient-derived colon adenocarcinoma cell line growth inhibition [RAS]
Conditions: for viability, T/C: stronger effect = lower value
How it was run: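 Multi-cell-type spheroids: tumor cells plus HUVEC endothelial cells and mesenchymal stem cells. RAS-pathway inhibitors were combined with targeted agents, each dosed in half-log steps down from clinical Cmax, or from 10 microM when Cmax was unknown.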
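Also: spheroids exposed to the agents for 7 days before readout.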
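For viability, T/C in this document: luminescence viability as percent of DMSO vehicle control wells.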

## Cc1nc(N2CCC3(CC2)COC(C)C3N)c(CO)nc1Sc1ccnc(N)c1Cl (stereo unspecified) + C#Cc1c(F)ccc2cc(O)cc(-c3ncc4c(N5CC6CCC(C5)N6)nc(OCC56CCCN5CC(F)C6)nc4c3F)c12
Curve of first compound, second compound 0.0316 µM
  IC50: 5.18 µM
Curve of first compound, second compound 0.1 µM
  IC50: 1.65 µM
Curve of first compound, second compound 0.316 µM
  IC50: 0.883 µM
Curve of first compound, second compound 1 µM
  IC50: 0.482 µM
Curve of first compound, second compound 3.16 µM
  IC50: 0.156 µM
Curve of first compound, second compound 10 µM
  IC50: < 0.0316 µM
Second compound 0.0316 µM, first compound 0.0316 µM
  viability, T/C: 104%
Second compound 0.0316 µM, first compound 0.1 µM
  viability, T/C: 107%
Second compound 0.0316 µM, first compound 0.316 µM
  viability, T/C: 94.8%
Second compound 0.0316 µM, first compound 1 µM
  viability, T/C: 88.9%
Second compound 0.0316 µM, first compound 3.16 µM
  viability, T/C: 76.1%
Second compound 0.0316 µM, first compound 10 µM
  viability, T/C: 19.1%
Second compound 0.1 µM, first compound 0.0316 µM
  viability, T/C: 104%
Second compound 0.1 µM, first compound 0.1 µM
  viability, T/C: 102%
Second compound 0.1 µM, first compound 0.316 µM
  viability, T/C: 92.3%
Second compound 0.1 µM, first compound 1 µM
  viability, T/C: 69.5%
Second compound 0.1 µM, first compound 3.16 µM
  viability, T/C: 25.7%
Second compound 0.1 µM, first compound 10 µM
  viability, T/C: 4.47%
Second compound 0.316 µM, first compound 0.0316 µM
  viability, T/C: 99.9%
Second compound 0.316 µM, first compound 0.1 µM
  viability, T/C: 93.3%
Second compound 0.316 µM, first compound 0.316 µM
  viability, T/C: 79.2%
Second compound 0.316 µM, first compound 1 µM
  viability, T/C: 49.8%
Second compound 0.316 µM, first compound 3.16 µM
  viability, T/C: 7.28%
Second compound 0.316 µM, first compound 10 µM
  viability, T/C: 4.45%
Second compound 1 µM, first compound 0.0316 µM
  viability, T/C: 81%
Second compound 1 µM, first compound 0.1 µM
  viability, T/C: 81.5%
Second compound 1 µM, first compound 0.316 µM
  viability, T/C: 69.5%
Second compound 1 µM, first compound 1 µM
  viability, T/C: 16.2%
Second compound 1 µM, first compound 3.16 µM
  viability, T/C: 7.77%
Second compound 1 µM, first compound 10 µM
  viability, T/C: 4.16%
Second compound 3.16 µM, first compound 0.0316 µM
  viability, T/C: 81%
Second compound 3.16 µM, first compound 0.1 µM
  viability, T/C: 59.2%
Second compound 3.16 µM, first compound 0.316 µM
  viability, T/C: 35.6%
Second compound 3.16 µM, first compound 1 µM
  viability, T/C: 11%
Second compound 3.16 µM, first compound 3.16 µM
  viability, T/C: 9.29%
Second compound 3.16 µM, first compound 10 µM
  viability, T/C: 6.04%
Second compound 10 µM, first compound 0.0316 µM
  viability, T/C: 38%
Second compound 10 µM, first compound 0.1 µM
  viability, T/C: 22.6%
Second compound 10 µM, first compound 0.316 µM
  viability, T/C: 14.1%
Second compound 10 µM, first compound 1 µM
  viability, T/C: 13.3%
Second compound 10 µM, first compound 3.16 µM
  viability, T/C: 8.12%
Second compound 10 µM, first compound 10 µM
  viability, T/C: 3.97%

## C=CC(=O)Nc1cc(Nc2nccc(-c3cn(C)c4ccccc34)n2)c(OC)cc1N(C)CCN(C)C
Compound 0.00316 µM
  viability, T/C: 98.8% [middle of 4 runs]
Compound 0.01 µM
  viability, T/C: 92.5% [middle of 4 runs]
Compound 0.0316 µM
  viability, T/C: 101% [middle of 4 runs]
Compound 0.1 µM
  viability, T/C: 101% [middle of 4 runs]
Compound 0.316 µM
  viability, T/C: 96.5% [middle of 4 runs]
Compound 1 µM
  viability, T/C: 85.1% [middle of 4 runs]
Curve of compound
  IC50: > 1 µM

## CC(=O)OC12COC1CC(O)C1(C)C(=O)C(O)C3=C(C)C(OC(=O)C(O)C(NC(=O)OC(C)(C)C)c4ccccc4)CC(O)(C(OC(=O)c4ccccc4)C21)C3(C)C (stereo unspecified) + CCn1c(-c2cccnc2C(C)OC)c2c3cc(ccc31)N1CCOC(CC(NC(=O)C(C(C)C)N(C)C(=O)C3(F)CCN(C(=O)C#CC(C)(C)N(C)C)CC3)C(=O)N3CCCC(N3)C(=O)OCC(C)(C)C2)C1
Curve of first compound, second compound 0.000949 µM
  IC50: 0.234 µM
Curve of first compound, second compound 0.003 µM
  IC50: 0.235 µM
Curve of first compound, second compound 0.00949 µM
  IC50: 0.225 µM
Curve of first compound, second compound 0.03 µM
  IC50: 0.243 µM
Curve of first compound, second compound 0.0949 µM
  IC50: 0.234 µM
Curve of first compound, second compound 0.3 µM
  IC50: 0.229 µM
Second compound 0.000949 µM, first compound 0.0316 µM
  viability, T/C: 98.1%
Second compound 0.000949 µM, first compound 0.1 µM
  viability, T/C: 97.4%
Second compound 0.000949 µM, first compound 0.316 µM
  viability, T/C: 33.3%
Second compound 0.000949 µM, first compound 1 µM
  viability, T/C: 19.5%
Second compound 0.000949 µM, first compound 3.16 µM
  viability, T/C: 23.1%
Second compound 0.000949 µM, first compound 10 µM
  viability, T/C: 38.4%
Second compound 0.003 µM, first compound 0.0316 µM
  viability, T/C: 102%
Second compound 0.003 µM, first compound 0.1 µM
  viability, T/C: 94.6%
Second compound 0.003 µM, first compound 0.316 µM
  viability, T/C: 34.7%
Second compound 0.003 µM, first compound 1 µM
  viability, T/C: 16.6%
Second compound 0.003 µM, first compound 3.16 µM
  viability, T/C: 24.5%
Second compound 0.003 µM, first compound 10 µM
  viability, T/C: 38.4%
Second compound 0.00949 µM, first compound 0.0316 µM
  viability, T/C: 101%
Second compound 0.00949 µM, first compound 0.1 µM
  viability, T/C: 95.4%
Second compound 0.00949 µM, first compound 0.316 µM
  viability, T/C: 31.1%
Second compound 0.00949 µM, first compound 1 µM
  viability, T/C: 20%
Second compound 0.00949 µM, first compound 3.16 µM
  viability, T/C: 26%
Second compound 0.00949 µM, first compound 10 µM
  viability, T/C: 36.1%
Second compound 0.03 µM, first compound 0.0316 µM
  viability, T/C: 93%
Second compound 0.03 µM, first compound 0.1 µM
  viability, T/C: 98%
Second compound 0.03 µM, first compound 0.316 µM
  viability, T/C: 36.5%
Second compound 0.03 µM, first compound 1 µM
  viability, T/C: 17.7%
Second compound 0.03 µM, first compound 3.16 µM
  viability, T/C: 29.2%
Second compound 0.03 µM, first compound 10 µM
  viability, T/C: 34.1%
Second compound 0.0949 µM, first compound 0.0316 µM
  viability, T/C: 95.2%
Second compound 0.0949 µM, first compound 0.1 µM
  viability, T/C: 92.7%
Second compound 0.0949 µM, first compound 0.316 µM
  viability, T/C: 34.8%
Second compound 0.0949 µM, first compound 1 µM
  viability, T/C: 19%
Second compound 0.0949 µM, first compound 3.16 µM
  viability, T/C: 24.2%
Second compound 0.0949 µM, first compound 10 µM
  viability, T/C: 31.7%
Second compound 0.3 µM, first compound 0.0316 µM
  viability, T/C: 105%
Second compound 0.3 µM, first compound 0.1 µM
  viability, T/C: 96.6%
Second compound 0.3 µM, first compound 0.316 µM
  viability, T/C: 31.9%
Second compound 0.3 µM, first compound 1 µM
  viability, T/C: 18.9%
Second compound 0.3 µM, first compound 3.16 µM
  viability, T/C: 22.5%
Second compound 0.3 µM, first compound 10 µM
  viability, T/C: 28.3%
